These results are taken from article PMC11780439 (ACS Omega, 2025).

Structures are written as SMILES. Read-outs that look alike come from different tables or passages of the source.

Assay [1] addresses T1, prion protein (PrP) (Mesocricetus auratus, UniProt P04273).
T1 construct: gene PRNP
Description: biochemical.

For assay [2], the target named is T1, prion protein (PrP). Description: biochemical. This is another data set of the same source.

T1 sequence (P04273 90-231 limits assumed): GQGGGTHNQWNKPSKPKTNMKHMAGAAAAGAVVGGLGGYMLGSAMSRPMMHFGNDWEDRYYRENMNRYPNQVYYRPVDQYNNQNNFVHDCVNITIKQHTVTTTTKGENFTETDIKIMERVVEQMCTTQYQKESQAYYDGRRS

As for `O=C(/C=C/c1ccc(O)c(O)c1)O[C@@H]1C[C@](O)(C(=O)O)C[C@@H](O)[C@H]1O` [CA, chlorogenic acid], the IC50 at prion protein (PrP) [1] turned out to be 64.4 ± 12.1 µM.

Take `O=C(/C=C/c1ccc(O)c(O)c1)O[C@@H]1C[C@@](O)(C(=O)O)C[C@@H](O)[C@@H]1O` [NCA, neochlorogenic acid]: the midpoint of inhibition against prion protein (PrP) [1], the IC50, lay at 35.3 ± 7.09 µM.

For the compound `O=C(O[C@@H]1Cc2c(O)cc(O)cc2O[C@@H]1c1cc(O)c(O)c(O)c1)c1cc(O)c(O)c(O)c1` [EGCG, epigallocatechin gallate], the midpoint of inhibition on prion protein (PrP) [2], the IC50, lay at 2.84 ± 0.97 µM.

For orientation: IC50 means the concentration at which inhibition is half-maximal.
